The source of these data is ChEMBL document CHEMBL5244227, “Applications of fluorine-containing amino acids for drug design” (Eur J Med Chem, 2020).

Series [1] can be described thus: Inhibition of HCV NS3/4A protease. More on the design: species or system Hepacivirus hominis.
For series [2], the system named is Hepatitis C virus. Put plainly: Antiviral activity against HCV. The series is classed as functional, organism-based, Hepacivirus hominis.
Series [3] relates to Plasmodium berghei. Briefly: Antimalarial activity against Plasmodium berghei infected in mouse model infected with assessed as reduction in parasitemia at 100 mg/kg. The series is classed as functional. Also noted: scale not given: the % may be the effect or the level left.
A short description of series [4]: Oral bioavailability in rat. Type of series: ADME, organism-based. To be noted: in vivo.
A short description of series [5]: In vivo inhibition of BACE-1 in wild type Hartley guinea pig assessed as reduction in amyloid beta level in cortex at 30 mg/kg, po administered twice daily for 2.5 days. Type of series: functional. To be noted: Cavia porcellus, 60 h, time 2.5 day.
Series [6] in a line: In vivo inhibition of BACE-1 in wild type Hartley guinea pig assessed as reduction in amyloid beta level in cerebrospinal fluid at 30 mg/kg, po administered twice daily for 2.5 days. Type of series: functional. The following applies: Cavia porcellus, 60 h, time 2.5 day.
Series [7] addresses ATP-dependent translocase ABCB1 (Homo sapiens, UniProt P08183). Briefly: Substrate activity at human P-gp assessed as transport ratio.
Series [8] in a line: Binding affinity to CGRP (unknown origin). More on the design: species or system Homo sapiens.

Structures are written as SMILES.

Sequence of ATP-dependent translocase ABCB1 (P08183 whole entry): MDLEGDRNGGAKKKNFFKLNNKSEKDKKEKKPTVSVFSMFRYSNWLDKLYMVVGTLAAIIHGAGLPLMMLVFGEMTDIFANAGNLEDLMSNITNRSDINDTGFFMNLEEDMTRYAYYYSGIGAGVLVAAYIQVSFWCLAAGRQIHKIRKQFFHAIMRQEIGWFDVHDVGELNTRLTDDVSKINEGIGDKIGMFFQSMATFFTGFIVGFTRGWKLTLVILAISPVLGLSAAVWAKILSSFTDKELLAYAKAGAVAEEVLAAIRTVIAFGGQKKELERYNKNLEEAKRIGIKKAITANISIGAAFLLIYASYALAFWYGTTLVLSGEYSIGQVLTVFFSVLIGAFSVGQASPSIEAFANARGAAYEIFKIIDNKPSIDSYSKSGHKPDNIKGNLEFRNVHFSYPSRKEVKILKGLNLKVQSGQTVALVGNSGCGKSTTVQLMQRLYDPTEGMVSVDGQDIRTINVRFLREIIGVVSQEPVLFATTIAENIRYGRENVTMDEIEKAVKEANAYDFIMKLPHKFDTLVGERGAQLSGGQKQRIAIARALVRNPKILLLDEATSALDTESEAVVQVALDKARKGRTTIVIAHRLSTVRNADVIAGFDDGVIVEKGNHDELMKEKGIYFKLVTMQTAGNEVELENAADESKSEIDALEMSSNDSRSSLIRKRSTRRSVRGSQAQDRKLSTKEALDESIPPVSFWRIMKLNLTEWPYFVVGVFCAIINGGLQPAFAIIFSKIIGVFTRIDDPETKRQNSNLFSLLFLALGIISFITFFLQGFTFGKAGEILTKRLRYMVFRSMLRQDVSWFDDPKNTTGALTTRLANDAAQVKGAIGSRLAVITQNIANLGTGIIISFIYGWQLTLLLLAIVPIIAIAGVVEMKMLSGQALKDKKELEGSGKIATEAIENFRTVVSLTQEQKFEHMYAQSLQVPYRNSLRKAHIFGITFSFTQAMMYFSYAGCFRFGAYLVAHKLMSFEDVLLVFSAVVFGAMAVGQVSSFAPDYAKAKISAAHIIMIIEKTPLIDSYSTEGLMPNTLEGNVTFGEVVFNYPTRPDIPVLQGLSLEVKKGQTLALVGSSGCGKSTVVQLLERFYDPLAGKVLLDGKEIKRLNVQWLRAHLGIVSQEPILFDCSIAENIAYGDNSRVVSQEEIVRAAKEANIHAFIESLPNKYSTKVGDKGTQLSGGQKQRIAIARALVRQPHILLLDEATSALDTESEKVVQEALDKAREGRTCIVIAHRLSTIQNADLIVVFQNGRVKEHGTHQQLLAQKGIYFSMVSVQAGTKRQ

The IC50 is the concentration that inhibits the measured activity by half. Turning to `COc1cnc(O[C@@H]2C[C@@H](C(=O)N[C@]3(C(=O)NS(=O)(=O)C4CC4)C[C@H]3C)N(C(=O)C(NC(=O)OC(C)(C)C)C(C)(C)C)C2)c2cc(Cl)ccc12` (single isomer, unassigned), it took 13 nM to reach half-maximal inhibition in series [1] (IC50).

By EC50 is commonly meant the concentration giving half of the maximal effect. In series [2], `COc1ccc2c(O[C@@H]3C[C@H]4C(=O)N[C@]5(P(=O)(O)Cc6ccccc6)C[C@H]5/C=C/CCCCC[C@H](NC(=O)OC5CCCC5)C(=O)N4C3)cc(-c3csc(NC(C)C)n3)nc2c1` gave a 50% effective concentration (EC50) of 10 nM.

Turning to `CC1CCc2c([nH]c3ccccc23)C2(N1)C(=O)Nc1ccc(Cl)cc12` (stereo not given), the Activity in series [3] came out at 96%. With `CC[C@H](NC(=O)[C@@H]1C[C@@H](Oc2ncc(OC)c3ccc(Cl)cc23)CN1C(=O)C(NC(=O)OC(C)(C)C)C(C)(C)C)C(=O)NS(=O)(=O)C1CC1` (single isomer, unassigned), the IC50 in series [1] was determined as 3080 nM. Usually bioavailability stands for the share of a dose that reaches the circulation, judged against a reference dose that is usually intravenous. With `C=C[C@@H]1C[C@]1(NC(=O)[C@@H]1C[C@@H](Oc2cc(-c3csc(NC(C)C)n3)nc3cc(OC)ccc23)CN1C(=O)[C@@H](NC(=O)OC1CCCC1)C(C)(C)C)P(=O)(O)Cc1ccccc1`, the bioavailability in series [4] was found to be 0.5%.

As usually defined, the inhibition in vivo is the relative decrease from the control value, in per cent. Consider `CC(=O)N[C@@H](Cc1cc(F)cc(F)c1)[C@H](O)CNC1(c2cccc(C(C)(C)C(F)F)c2)CC1`, for which the inhibition in vivo at 30 mg/kg in series [5] is 28%; in series [6], 32%. By Ki is commonly meant the dissociation constant of the complex between target and ligand, obtained from inhibition or displacement. In series [1], `COc1ccc2c(O[C@@H]3C[C@H]4C(=O)N[C@]5(P(=O)(O)Cc6c(F)cccc6F)C[C@H]5CCCCCCC[C@H](NC(=O)OC5CCCC5)C(=O)N4C3)cc(-c3csc(NC(C)C)n3)nc2c1Cl` [GS-9256] showed a half-inhibitory concentration (IC50) of 4 nM and a Ki of 0.089 nM. In series [2], this compound displayed an EC50 of 20 nM.

For `C[C@@]1(c2cc(F)cc(F)c2)CN([11CH3])C2(CCCC2)C(=O)N1CC(=O)Nc1ccc2c(c1)C[C@@]1(C2)C(=O)Nc2ncccc21`, the Ratio in series [7] stood at 1.7. In series [8], `O=C(CN1C(=O)C2(CCCC2)NC[C@@H]1c1ccccc1)Nc1ccc2c(c1)C[C@@]1(C2)C(=O)Nc2ncccc21` gave an inhibition constant Ki of 0.067 nM. With `COc1ccc2c(O[C@@H]3C[C@H]4C(=O)N[C@]5(C(=O)NS(=O)(=O)C6CC6)C[C@@]5(F)/C=C\CCCCN(C)C(=O)[C@@H]4C3)cc(-c3nc(C(C)C)cs3)nc2c1C`, the EC50 in series [1] amounted to 15000 nM. In turn, `COc1cnc(O[C@@H]2C[C@@H](C(=O)N[C@]3(C(=O)NS(=O)(=O)C4CC4)C[C@H]3C(F)(F)F)N(C(=O)C(NC(=O)OC(C)(C)C)C(C)(C)C)C2)c2cc(Cl)ccc12` (single isomer, unassigned) registered an IC50 in series [1] of 17 nM. With `O=C(CN1C(=O)C2(CCCC2)NC[C@H]1c1cc(F)cc(F)c1)Nc1ccc2c(c1)C[C@@]1(C2)C(=O)Nc2ncccc21` [MK3207], in series [8], the affinity, expressed as Ki, was 0.017 nM. As to `COc1ccc2c(O[C@@H]3C[C@H]4C(=O)N[C@]5(C(=O)NS(=O)(=O)C6CC6)C[C@H]5/C=C\CCCCN(C)C(=O)[C@@H]4C3)cc(-c3nc(C(C)C)cs3)nc2c1C`, in series [1], it took 8.1 nM to reach a half-maximal effect (EC50). In series [1], `COc1cnc(O[C@@H]2C[C@@H](C(=O)N[C@@H](CC(F)F)C(=O)NS(=O)(=O)C3CC3)N(C(=O)C(NC(=O)OC(C)(C)C)C(C)(C)C)C2)c2cc(Cl)ccc12` (single isomer, unassigned) showed an IC50 of 976 nM. In series [8], `O=C(CN1C(=O)C2(CCCC2)NC[C@@H]1c1cc(F)cc(F)c1)Nc1ccc2c(c1)C[C@@]1(C2)C(=O)Nc2ncccc21` returned an inhibitory constant (Ki) of 0.57 nM.

`COc1cnc(O[C@@H]2C[C@@H](C(=O)N[C@]3(C(=O)NS(=O)(=O)C4CC4)C[C@H]3CC(F)F)N(C(=O)C(NC(=O)OC(C)(C)C)C(C)(C)C)C2)c2cc(Cl)ccc12` (single isomer, unassigned): half-maximal inhibition in series [1] (IC50) was put at 1 nM. In the case of `NCCCC[C@H](NC(=O)[C@@H](Cc1cc(Br)c(O)c(Br)c1)NC(=O)N1CCC(N2Cc3ccccc3NC2=O)CC1)C(=O)N1CCN(c2ccncc2)CC1` [OLCEGEPANT], the Ki in series [8] worked out at 0.01 nM.
